According to patent US9981909B2 (Janssen Pharmaceutica NV, priority 2008, dated 2018):
Counter-ions that a name gives are not always drawn.

Molecular target: rat 5-HT7 receptor (Rattus norvegicus (Rat), UniProt P32305)
Test: r5-HT7 binding assay, competitive radioligand binding with [3H]5-CT
Experimental: Receptor binding was performed using membrane fractions prepared from the HEK-293 cell line recombinantly expressing rat 5-HT7 receptors (NCBI accession NM_022938). Compound affinity for the rat 5-HT7 receptor subtype was evaluated by competitive radioligand binding assays using 5-carboxamido[^3H]tryptamine ([^3H]5-CT) (Amersham Biosciences, cat. 90000403) detection. HitHunter™ cAMP assays are in-vitro based competitive immunoassays. The assay was performed on the HEK-293 cell line stably transfected with r5-HT7 receptor. Cells were pre-incubated with test compounds for 10 minutes. For antagonist testing, the cells were then challenged with 100 nM 5-CT for 20 minutes. Cells were then lysed and cAMP measured according to manufacturers protocol (Amersham, cat. NET791250UC) or [^3H]mesulergine (Amersham, cat. TRK1041). The assay was performed on membranes prepared from HEK-293 cells stably transfected with h5-HT6. Following centrifugation, membranes were resuspended and incubated for 60 min at room temperature with 1.7 nM [^3H]LSD in the presence of increasing concentration of test compounds. Nonspecific binding was defined in the presence of 10 μM clozapine (Tocris, cat. TRK1068). Homogenized HEK-293 membranes expressing the human SERT were incubated in 50 mM Tris-HCl (pH 7.5), 120 mM NaCl, 5 mM KCl with [^3H]-citalopram (3 nM) with or without test compounds. Nonspecific binding was determined in the presence of 10 μM fluoxetine. Radioactivity readouts and Ki values were performed as previously described for r5-HT7. […] Compounds were assayed in their free form or as salts, as indicated in the Examples section above.

[1] = rat 5-HT7 receptor, HEK-293 membranes

rat 5-HT7 receptor, sequence (P32305 1-435): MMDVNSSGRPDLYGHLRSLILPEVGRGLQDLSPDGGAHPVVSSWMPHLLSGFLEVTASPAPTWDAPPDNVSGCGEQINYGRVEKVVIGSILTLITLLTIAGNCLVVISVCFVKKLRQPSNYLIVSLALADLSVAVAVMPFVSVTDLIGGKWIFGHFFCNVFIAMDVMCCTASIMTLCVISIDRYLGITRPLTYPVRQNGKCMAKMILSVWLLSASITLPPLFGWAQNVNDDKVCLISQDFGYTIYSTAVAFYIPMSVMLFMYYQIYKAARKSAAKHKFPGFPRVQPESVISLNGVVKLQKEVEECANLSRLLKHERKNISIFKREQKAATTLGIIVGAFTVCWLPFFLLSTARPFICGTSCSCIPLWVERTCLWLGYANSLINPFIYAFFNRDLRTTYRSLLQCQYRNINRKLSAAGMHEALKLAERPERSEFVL

Row | Structure (SMILES) | Ki [1] [nM] | Ki (rat 5-HT7, HEK-293 membranes) [nM]
1 | Cc1nc(C(F)(F)F)ccc1COc1ccc(Cl)cc1OC1CNC1 [Example 80, 3-[2-(Azetidin-3-yloxy)-4-chloro-phenoxymethyl]-2-methyl-6-trifluoromethyl-pyridine] | > 10000 | –
2 | Clc1cccc(COc2ccc(-c3ccsc3)cc2OC2CNC2)c1 [Example 210, 3-[2-(3-Chloro-benzyloxy)-5-thiophen-3-yl-phenoxy]-azetidine] | 506 | –
3 | CC(C)(C)c1ccc2c(c1)CCC2Oc1ccc(Br)cc1OC1CNC1 (centres unmarked) [Example 162, 3-[5-Bromo-2-(5-tert-butyl-indan-1-yloxy)-phenoxy]-azetidine] | 5000 | –
4 | Clc1cccc(COc2ccc(Cl)cc2COC2CNC2)c1 [Example 238, 3-[5-Chloro-2-(3-chloro-benzyloxy)-benzyloxy]-azetidine] | – | 200
5 | Cc1nc(C)c(C(C)Oc2ccc(Cl)cc2OC2CNC2)s1 (centres unmarked) [Example 134, 5-[1-[2-(Azetidin-3-yloxy)-4-chloro-phenoxy]-ethyl]-2,4-dimethyl-thiazole] | 3830 | –
6 | Clc1ccc(OC2CNC2)c(OC2CNC2)c1 [Example 226] | – | 840
7 | Fc1cc(Cl)cc(OC2CNC2)c1OCc1ccccc1 [Example 197, 3-(2-Benzyloxy-5-chloro-3-fluoro-phenoxy)-azetidine] | 1420 | –
8 | CN(C)C(=O)c1ccc(OCc2cccc(Cl)c2)c(OC2CNC2)c1 [Example 211, 3-(Azetidin-3-yloxy)-4-(3-chloro-benzyloxy)-N,N-dimethyl-benzamide] | 9000 | –
9 | CC(C)N1CC(Oc2cc(Br)ccc2C(=O)c2ccc3c(c2)OCO3)C1 [Example 290, Benzo[1,3]dioxol-5-yl-[4-bromo-2-(1-isopropyl-azetidin-3-yloxy)-phenyl]-methanone] | – | 143
10 | CC(C)N1CC(Oc2cc(Cl)ccc2C(=O)c2ccc3c(c2)OCO3)C1 [Example 296, Benzo[1,3]dioxol-5-yl-[4-chloro-2-(1-isopropyl-azetidin-3-yloxy)-phenyl]-methanone] | – | 181
11 | CCC1(Oc2cc(Br)ccc2OCc2cccc(Cl)c2)CNC1 [Example 213, 3-[5-Bromo-2-(3-chloro-benzyloxy)-phenoxy]-3-ethyl-azetidine] | – | 4590
12 | CS(=O)(=O)c1cc(Cl)ccc1COc1ccc(Cl)cc1OC1CNC1 [Example 56, 3-[5-Chloro-2-(4-chloro-2-methanesulfonyl-benzyloxy)-phenoxy]-azetidine] | 9000 | –
13 | O=C(c1ccc(Cl)c(F)c1)c1ccc(Br)cc1OC1CNC1 [Example 292, [2-(Azetidin-3-yloxy)-4-bromo-phenyl]-(4-chloro-3-fluoro-phenyl)-methanone] | – | 74
14 | Clc1ccc(OCc2nc(C3CCC3)no2)c(OC2CNC2)c1 [Example 240, 5-[2-(Azetidin-3-yloxy)-4-chloro-phenoxymethyl]-3-cyclobutyl-[1,2,4]oxadiazole] | – | 252
15 | CC(Oc1cc(Br)ccc1OCc1cccc(Cl)c1)C1(O)CNC1 (centres unmarked) [Example 236, 3-[1-[5-Bromo-2-(3-chloro-benzyloxy)-phenoxy]-ethyl]-azetidin-3-ol] | – | 831
16 | COc1cccc(Oc2ccc(Br)cc2OC2CNC2)c1 [Example 248, 3-[5-Bromo-2-(3-methoxy-phenoxy)-phenoxy]-azetidine] | – | 43
17 | Clc1ccc(Oc2ccccc2)c(OC2CCNCC2)c1 [Example 265, 4-(5-Chloro-2-phenoxy-phenoxy)-piperidine] | – | 130
18 | Clc1ccc(OC2CCCC2)c(OC2CNC2)c1 [Example 72, 3-(5-Chloro-2-cyclopentyloxy-phenoxy)-azetidine trifluoroacetate] | 270 | –
19 | Clc1ccc(OCc2nccs2)c(OC2CNC2)c1 [Example 88, 2-[2-(Azetidin-3-yloxy)-4-chloro-phenoxymethyl]-thiazole] | 681 | –
20 | Cc1cccc(C(=O)c2ccc(Br)cc2OC2CNC2)c1 [Example 284, [2-(Azetidin-3-yloxy)-4-bromo-phenyl]-m-tolyl-methanone] | – | 19
21 | CC(C)N1CC(Oc2ccc(Cl)cc2OC2CN(C(C)C)C2)C1 [Example 227, 3-[5-Chloro-2-(1-Isopropyl-azetidin-3-ol)-phenoxy]-1-isopropyl-azetidine] | – | 336

Results, then the compound that gave them:

Row | Ki [1] [nM] | Ki (rat 5-HT7, HEK-293 membranes) [nM] | Structure (SMILES)
22 | 190 | – | CC(C)N1CC(Oc2ccc(Br)cc2OCc2cccc(Cl)c2)C1 [Example 24, 3-[4-Bromo-2-(3-chloro-benzyloxy)-phenoxy]-1-isopropyl-azetidine]
23 | 11 | – | Brc1ccc(OCC2CCCCC2)c(OC2CNC2)c1 [Example 74, 3-(5-Bromo-2-cyclohexylmethoxy-phenoxy)-azetidine]
24 | 121 | – | Clc1cccc(COc2cc(Br)ccc2OC2CN(C3CCC3)C2)c1 [Example 23, 3-[4-Bromo-2-(3-chloro-benzyloxy)-phenoxy]-1-cyclobutyl-azetidine]
25 | 288 | – | CC(Oc1ccc(Cl)cc1OC1CNC1)c1cc(F)cc(C(F)(F)F)c1 (racemic) [Example 119, (±)-3-[5-Chloro-2-[1-(3-fluoro-5-trifluoromethyl-phenyl)-ethoxy]-phenoxy]-azetidine]
26 | 27 | – | C[C@H](Oc1ccc(Cl)cc1OC1CN(C)C1)c1cccc(C(F)(F)F)c1 [Example 103, (S)-3-[5-Chloro-2-[1-(3-trifluoromethyl-phenyl)-ethoxy]-phenoxy]-1-methyl-azetidine]
27 | 450 | – | CCC(Oc1ccc(Cl)cc1OC1CCNCC1)c1cccc(C(F)(F)F)c1 (racemic) [Example 141, (±)-4-[5-Chloro-2-[1-(3-trifluoromethyl-phenyl)-propoxy]-phenoxy]-piperidine]
28 | 456 | – | CC(Oc1ccc(Cl)cc1OC1CNC1)c1cncs1 (centres unmarked) [Example 132, 5-[1-[2-(Azetidin-3-yloxy)-4-chloro-phenoxy]-ethyl]-thiazole]
29 | 150 | – | CN1CCC(Oc2ccccc2OCc2cccc(OS(C)(=O)=O)c2)C1 (racemic) [Example 100, (±)-Methanesulfonic acid 3-[2-(1-methyl-pyrrolidin-3-yloxy)-phenoxymethyl]-phenyl ester]
30 | 27 | – | Fc1ccc(OCc2cccc(Cl)c2)c(OC2CN(C3CCC3)C2)c1 [Example 205, 3-[2-(3-Chloro-benzyloxy)-5-fluoro-phenoxy]-1-cyclobutyl-azetidine]
31 | 87 | – | N#Cc1ccc(COc2ccc(Cl)cc2OC2CNC2)cc1 [Example 44, 4-[2-(Azetidin-3-yloxy)-4-chloro-phenoxymethyl]-benzonitrile]
32 | 174 | – | Clc1ccc(OCc2ccccc2)c(OC2CCCNC2)c1 (racemic) [Example 70, (±)-3-(2-Benzyloxy-5-chloro-phenoxy)-piperidine]
33 | 167 | – | Clc1ccc(OCC2COc3ccccc3C2)c(OC2CNC2)c1 (centres unmarked) [Example 167, 3-[5-Chloro-2-(chroman-3-ylmethoxy)-phenoxy]-azetidine]
34 | 189 | – | C[C@@H](Oc1ccc(Cl)cc1OC1CCCNC1)c1cccc(C(F)(F)F)c1 (stereo partly drawn) [Example 139, (R,S)-3-[5-Chloro-2-[1-((R)-3-trifluoromethyl-phenyl)-ethoxy]-phenoxy]-piperidine]
35 | 198 | – | FC(F)(F)c1ccc(COc2ccc(Cl)cc2OC2CNC2)cn1 [Example 82, 5-[2-(Azetidin-3-yloxy)-4-chloro-phenoxymethyl]-2-trifluoromethyl-pyridine]
36 | 143 | – | FC(F)(F)c1cccc(COc2ccc(Cl)cc2OC2CCCNC2)c1 (racemic) [Example 71, (±)-3-[5-Chloro-2-(3-trifluoromethyl-benzyloxy)-phenoxy]-piperidine]
37 | 127 | – | CC(Oc1ccc(Cl)cc1OC1CNC1)c1ccc(F)c(F)c1 (racemic) [Example 128, (±)-3-[5-Chloro-2-[1-(3,4-difluoro-phenyl)-ethoxy]-phenoxy]-azetidine trifluoroacetate]
38 | 38 | – | CC(Oc1ccc(Cl)cc1OC1CNC1)c1ccc(Cl)c(Cl)c1 (racemic) [Example 126, (±)-3-[5-Chloro-2-[1-(3,4-dichloro-phenyl)-ethoxy]-phenoxy]-azetidine]
39 | 21 | – | CCCN1CC(Oc2cc(F)ccc2OCc2cccc(Cl)c2)C1 [Example 206, 3-[2-(3-Chloro-benzyloxy)-5-fluoro-phenoxy]-1-propyl-azetidine]
40 | 230 | – | CCC(Oc1ccc(Cl)cc1OC1CNC1)c1cccc(C(F)(F)F)c1 (racemic) [Example 140, (±)-3-[5-Chloro-2-[1-(3-trifluoromethyl-phenyl)-propoxy]-phenoxy]-azetidine]
41 | 360 | – | ON=C1c2ccccc2CC1Oc1ccc(Cl)cc1OC1CNC1 (centres unmarked) [Example 179, 2-[2-(Azetidin-3-yloxy)-4-chloro-phenoxy]-indan-1-one oxime]
42 | 36 | – | CN1CC[C@@H](Oc2cc(Cl)ccc2OCc2ccccc2Cl)C1 [Example 61, (R)-3-[5-Chloro-2-(2-chloro-benzyloxy)-phenoxy]-1-methyl-pyrrolidine]
43 | 240 | – | Clc1ccc(OCc2cnco2)c(OC2CNC2)c1 [Example 87, 5-[2-(Azetidin-3-yloxy)-4-chloro-phenoxymethyl]-oxazole]
44 | 138 | – | Clc1cccc(C2(COc3ccc(Cl)cc3OC3CNC3)CCC2)c1 [Example 189, 3-[5-Chloro-2-[1-(3-chloro-phenyl)-cyclobutylmethoxy]-phenoxy]-azetidine]
